Experimental findings from patent US20110015119A1, “NOVEL SEMI-SYNTHETIC GLYCOPEPTIDES AS ANTIBACTERIAL AGENTS” (LEAD THERAPEUTICS, INC., priority 2009, published 2011) are described below.

Assay type in all cases: cell-based
Assay [1] has as its system Enterococcus faecium 752 (VRE, Van A). Briefly: MIC by broth microdilution, EFcm 752. The note with it: Enterococcus faecium, VRE, read-out: MIC E FCM 752, Enterococcus faecium 752 (VRE, Van A); class symbols. In a few lines:
(§1)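 Per CLSI: serial twofold handling automated, Mueller-Hinton broth, clinical isolate inoculum, MIC recorded.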

Assay [2] relates to Staphylococcus aureus 2012 (VISA). Briefly: MIC by broth microdilution, SA 2012. The note with it: Staphylococcus aureus, VISA, read-out: MIC SA 2012, Staphylococcus aureus 2012 (VISA); class symbols. In a few lines:
as §1
For orientation: Dilution methods test growth across graded concentrations, often in twofold steps.

The test system of assay [3] is Staphylococcus epidermidis 835. The assay can be described thus: MIC by broth microdilution, SE 835. The note with it: Staphylococcus epidermidis, 835, read-out: MIC SE 835. In a few lines:
as §1

Assay [4] deals with Enterococcus faecalis 848 (VRE, Van A). Briefly: MIC by broth microdilution, EFc 848. The note with it: Enterococcus faecalis, VRE, read-out: MIC E FC 848, Enterococcus faecalis 848 (VRE, Van A); class symbols. In a few lines:
as §1

For the next assay, the system named is Enterococcus faecium 800. The assay can be described thus: MIC by broth microdilution, EFcm 800. The note with it: Enterococcus faecium, 800, read-out: MIC E FCM 800. In a few lines:
as §1

Assay [5] concerns Enterococcus faecalis 101 (ATCC 29212). Briefly: MIC by broth microdilution, EFc 101. The note with it: Enterococcus faecalis, ATCC29212, read-out: MIC E FC 101, Enterococcus faecalis 101 (ATCC 29212); class symbols. In a few lines: as §1
For assay [6], the system named is Staphylococcus aureus 100 (ATCC 29213). Briefly: MIC by broth microdilution, SA 100. The note with it: Staphylococcus aureus, ATCC29213, read-out: MIC SA 100. In a few lines: as §1
The subject of assay [7] is Staphylococcus aureus 757 (MRSA). The assay can be described thus: MIC by broth microdilution, SA 757. The note with it: Staphylococcus aureus, MRSA, read-out: MIC SA 757. In a few lines: as §1
Assay [8] deals with Streptococcus pyogenes 712. The assay can be described thus: MIC by broth microdilution, SPY 712. The note with it: Streptococcus pyogenes, 712, read-out: MIC S PYO 712. In a few lines:
as §1

Assay [9] relates to Staphylococcus epidermidis 831 (MRSE). Briefly: MIC by broth microdilution, SE 831. The note with it: Staphylococcus epidermidis, MRSE, read-out: MIC SE 831. In a few lines: as §1
In assay [10] the test system is Streptococcus pneumoniae 1195 (ATCC 49619). Briefly: MIC by broth microdilution, SPNE 1195. The note with it: Streptococcus pneumoniae, ATCC49619, read-out: MIC S PNE 1195. In a few lines:
as §1

Molecules are shown by their SMILES. Converted amounts (≈) assume the structure as drawn.

`CCOc1ccc(NC(=O)Oc2cc(O)c3c(c2)[C@@H](C(=O)NC2C4CC5CC(C4)CC2C5)NC(=O)[C@H]2NC(=O)[C@H](NC(=O)[C@@H]4NC(=O)[C@H](CC(N)=O)NC(=O)[C@H](NC(=O)[C@@H](CC(C)C)NC)[C@H](O)c5ccc(c(Cl)c5)Oc5cc4cc(c5O[C@@H]4O[C@H](CO)[C@@H](O)[C@H](O)[C@H]4O[C@H]4C[C@](C)(N)[C@H](O)[C@H](C)O4)Oc4ccc(cc4Cl)[C@H]2O)c2ccc(O)c-3c2)cc1` (some centres unmarked) [Compound 330]: the MIC in [1] is more than 16 µg/mL; in assay [2], 4 to 8 µg/mL (≈ 2.29 to 4.58 µM); in assay [3], 1 to 2 µg/mL (≈ 0.573 to 1.15 µM); in assay [4], more than 16 µg/mL; in the assay on Enterococcus faecium 800 it was 0.01 to 0.5 µg/mL (≈ 0.00573 to 0.286 µM); in assay [5], 1 to 2 µg/mL (≈ 0.573 to 1.15 µM). The MIC in assay [6] was 0.5 to 1 µg/mL (≈ 0.286 to 0.573 µM); in [7] it was 0.5 to 1 µg/mL (≈ 0.286 to 0.573 µM); in assay [8], 0.01 to 0.5 µg/mL (≈ 0.00573 to 0.286 µM); in assay [9] it was 1 to 2 µg/mL (≈ 0.573 to 1.15 µM); in [10], 0.01 to 0.5 µg/mL (≈ 0.00573 to 0.286 µM).
Consider `CCCCc1ccc(NC(=O)Oc2cc(O)c3c(c2)[C@@H](C(=O)NC2C4CC5CC(C4)CC2C5)NC(=O)[C@H]2NC(=O)[C@H](NC(=O)[C@@H]4NC(=O)[C@H](CC(N)=O)NC(=O)[C@H](NC(=O)[C@@H](CC(C)C)NC)[C@H](O)c5ccc(c(Cl)c5)Oc5cc4cc(c5O[C@@H]4O[C@H](CO)[C@@H](O)[C@H](O)[C@H]4O[C@H]4C[C@](C)(N)[C@H](O)[C@H](C)O4)Oc4ccc(cc4Cl)[C@H]2O)c2ccc(O)c-3c2)cc1` (some centres unmarked) [Compound 331], for which the minimum inhibitory concentration (MIC) in assay [1] is 2 to 4 µg/mL (≈ 1.14 to 2.28 µM); in assay [2], 1 to 2 µg/mL (≈ 0.569 to 1.14 µM); in assay [3], 0.5 to 1 µg/mL (≈ 0.284 to 0.569 µM); in assay [4], more than 16 µg/mL; in the assay on Enterococcus faecium 800, 0.01 to 0.5 µg/mL (≈ 0.00569 to 0.284 µM); in assay [5], 0.5 to 1 µg/mL (≈ 0.284 to 0.569 µM). For the same molecule, the MIC in assay [6], in assay [7], in assay [8], in [9] and in assay [10] was 0.01 to 0.5 µg/mL (≈ 0.00569 to 0.284 µM) in each case.
Turning to `CCCCCCc1ccc(NC(=O)Oc2cc(O)c3c(c2)[C@@H](C(=O)NC2C4CC5CC(C4)CC2C5)NC(=O)[C@H]2NC(=O)[C@H](NC(=O)[C@@H]4NC(=O)[C@H](CC(N)=O)NC(=O)[C@H](NC(=O)[C@@H](CC(C)C)NC)[C@H](O)c5ccc(c(Cl)c5)Oc5cc4cc(c5O[C@@H]4O[C@H](CO)[C@@H](O)[C@H](O)[C@H]4O[C@H]4C[C@](C)(N)[C@H](O)[C@H](C)O4)Oc4ccc(cc4Cl)[C@H]2O)c2ccc(O)c-3c2)cc1` (some centres unmarked) [Compound 332], the MIC is 8 to 16 µg/mL (≈ 4.48 to 8.96 µM) in assay [1]; 4 to 8 µg/mL (≈ 2.24 to 4.48 µM) in assay [2]; 1 to 2 µg/mL (≈ 0.56 to 1.12 µM) in [3]; more than 16 µg/mL in assay [4]; 0.5 to 1 µg/mL (≈ 0.28 to 0.56 µM) in the assay on Enterococcus faecium 800; 1 to 2 µg/mL (≈ 0.56 to 1.12 µM) in [5]. The MIC in [6] lay in the range of 1 to 2 µg/mL (≈ 0.56 to 1.12 µM); in [7], 1 to 2 µg/mL (≈ 0.56 to 1.12 µM); in assay [8] it was 0.01 to 0.5 µg/mL (≈ 0.0056 to 0.28 µM); in assay [9], 0.5 to 1 µg/mL (≈ 0.28 to 0.56 µM); in assay [10] it was 0.01 to 0.5 µg/mL (≈ 0.0056 to 0.28 µM).
Regarding `CNCCCOc1ccc(NC(=O)Oc2cc(O)c3c(c2)[C@@H](C(=O)NC2C4CC5CC(C4)CC2C5)NC(=O)[C@H]2NC(=O)[C@H](NC(=O)[C@@H]4NC(=O)[C@H](CC(N)=O)NC(=O)[C@H](NC(=O)[C@@H](CC(C)C)NC)[C@H](O)c5ccc(c(Cl)c5)Oc5cc4cc(c5O[C@@H]4O[C@H](CO)[C@@H](O)[C@H](O)[C@H]4O[C@H]4C[C@](C)(N)[C@H](O)[C@H](C)O4)Oc4ccc(cc4Cl)[C@H]2O)c2ccc(O)c-3c2)cc1` (some centres unmarked) [Compound 333], the MIC in assay [1] was more than 16 µg/mL; in assay [2] it was more than 16 µg/mL; in assay [3], 8 to 16 µg/mL (≈ 4.47 to 8.94 µM); in assay [4] it was more than 16 µg/mL; in the assay with Enterococcus faecium 800, 2 to 4 µg/mL (≈ 1.12 to 2.24 µM); in assay [5], 4 to 8 µg/mL (≈ 2.24 to 4.47 µM). The MIC in assay [6] fell in the range of 4 to 8 µg/mL (≈ 2.24 to 4.47 µM); in [7] it was 4 to 8 µg/mL (≈ 2.24 to 4.47 µM); in assay [8], 1 to 2 µg/mL (≈ 0.559 to 1.12 µM); in assay [9] it was 8 to 16 µg/mL (≈ 4.47 to 8.94 µM); in assay [10], 2 to 4 µg/mL (≈ 1.12 to 2.24 µM).

For orientation: MIC means the lowest concentration found to suppress growth.
